Biological target: c-kit (Homo sapiens, UniProt P10721)
Experiment: c-kit assays of Examples 40 and 41 (AlphaScreen kinase assays at 10 and 100 μM ATP, 33P-ATP filter assay, M-07e SCF-stimulated proliferation and phosphorylation)

Sequence of c-kit (P10721 with tags, fused parts or gaps): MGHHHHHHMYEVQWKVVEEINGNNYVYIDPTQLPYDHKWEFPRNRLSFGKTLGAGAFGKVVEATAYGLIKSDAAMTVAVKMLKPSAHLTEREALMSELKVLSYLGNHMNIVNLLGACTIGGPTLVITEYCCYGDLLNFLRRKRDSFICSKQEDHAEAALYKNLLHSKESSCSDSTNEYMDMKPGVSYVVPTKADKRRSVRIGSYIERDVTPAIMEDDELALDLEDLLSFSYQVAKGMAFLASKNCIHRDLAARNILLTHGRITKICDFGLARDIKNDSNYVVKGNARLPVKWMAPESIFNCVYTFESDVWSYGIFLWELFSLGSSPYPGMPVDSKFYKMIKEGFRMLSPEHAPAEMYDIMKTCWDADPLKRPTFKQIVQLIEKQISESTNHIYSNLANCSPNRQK

IC50 [µM]	Compound
< 1	Fc1ccc(C(F)(F)F)cc1CNc1ncc(Cc2c[nH]c3ncc(Cl)cc23)cn1 [P-0289, [5-(5-Chloro-1H-pyrrolo[2,3-b]pyridin-3-ylmethyl)-pyrimidin-2-yl]-(2-fluoro-5-trifluoromethyl-benzyl)-amine]
< 1	CCc1nc(C)c(CNc2nc(Cl)c(Cc3c[nH]c4ncc(Cl)cc34)s2)[nH]1 [P-0197, [4-Chloro-5-(5-chloro-1H-pyrrolo[2,3-b]pyridin-3-ylmethyl)-thiazol-2-yl]-(2-ethyl-5-methyl-3H-imidazol-4-ylmethyl)-amine]
< 1	COCCNc1ccc(Cc2c[nH]c3ncccc23)cn1 [P-0098, (2-Methoxy-ethyl)-[5-(1H-pyrrolo[2,3-b]pyridin-3-ylmethyl)-pyridin-2-yl]-amine]
< 1	COc1cncc(CNc2ccc(Cc3c[nH]c4ncccc34)cn2)c1 [P-0222, (5-Methoxy-pyridin-3-ylmethyl)-[5-(1H-pyrrolo[2,3-b]pyridin-3-ylmethyl)-pyridin-2-yl]-amine]
< 1	Clc1cnc2[nH]cc(Cc3sc(NCc4ccncc4)nc3Cl)c2c1 [P-0237, [4-Chloro-5-(5-chloro-1H-pyrrolo[2,3-b]pyridin-3-ylmethyl)-thiazol-2-yl]-pyridin-4-ylmethyl-amine]
< 1	CCCS(=O)(=O)Nc1ccc(F)c(CNc2ccc(Cc3c[nH]c4ncccc34)cn2)c1F [P-0258, propane-1-sulfonic acid (2,4-difluoro-3-[5-(1H-pyrrolo[2,3-b]pyridin-3-ylmethyl)-pyridin-2-ylamino]-methyl-phenyl)-amide]
< 1	Clc1cccc(CNc2ccc(Cc3c[nH]c4ncccc34)cn2)c1 [P-0129, (3-chloro-benzyl)-[5-(1H-pyrrolo[2,3-b]pyridin-3-ylmethyl)-pyridin-2-yl]-amine]
< 1	c1cnc(N2CCOCC2)c(CNc2ccc(Cc3c[nH]c4ncccc34)cn2)c1 [P-0347, (2-Morpholin-4-yl-pyridin-3-ylmethyl)-[5-(1H-pyrrolo[2,3-b]pyridin-3-ylmethyl)-pyridin-2-yl]-amine]
< 1	COc1ccccc1CNc1ccc(Cc2c[nH]c3ncc(C#N)cc23)cn1 [P-0337, 3-[6-(2-Methoxy-benzylamino)-pyridin-3-ylmethyl]-1H-pyrrolo[2,3-b]pyridine-5-carbonitrile]
< 1	FC(F)(F)c1cc(CNc2ccc(Cc3c[nH]c4ncccc34)cn2)ccc1Cl [P-0348, (4-Chloro-3-trifluoromethyl-benzyl)-[5-(1H-pyrrolo[2,3-b]pyridin-3-ylmethyl)-pyridin-2-yl]-amine]
< 1	Fc1c(Cl)cccc1CNc1ccc(Cc2c[nH]c3ncccc23)cn1 [P-0354, (3-Chloro-2-fluoro-benzyl)-[5-(1H-pyrrolo[2,3-b]pyridin-3-ylmethyl)-pyridin-2-yl]-amine]
< 1	Fc1ccc(CNc2ccc(Cc3c[nH]c4ncccc34)cn2)c(Cl)c1 [P-0221, (2-Chloro-4-fluoro-benzyl)-[5-(1H-pyrrolo[2,3-b]pyridin-3-ylmethyl)-pyridin-2-yl]-amine]
< 1	COc1cc(C(=O)Nc2ccc(Cc3c[nH]c4ncccc34)cn2)ccn1 [P-0104, 2-Methoxy-N-[5-(1H-pyrrolo[2,3-b]pyridin-3-ylmethyl)-pyridin-2-yl]-isonicotinamide]
< 1	Cc1cc(F)ccc1CNc1ccc(Cc2c[nH]c3ncccc23)cn1 [P-0372, (4-Fluoro-2-methyl-benzyl)-[5-(1H-pyrrolo[2,3-b]pyridin-3-ylmethyl)-pyridin-2-yl]-amine]
< 1	FC(F)(F)Oc1ccccc1CNc1ncc(Cc2c[nH]c3ncc(Cl)cc23)cn1 [P-0402, [5-(5-Chloro-1H-pyrrolo[2,3-b]pyridin-3-ylmethyl)-pyrimidin-2-yl]-(2-trifluoromethoxy-benzyl)-amine]
< 1	O=C(Nc1ccc(Cc2c[nH]c3ncccc23)cn1)c1ccnc(Cl)c1 [P-0123, 2-Chloro-N-[5-(1H-pyrrolo[2,3-b]pyridin-3-ylmethyl)-pyridin-2-yl]-isonicotinamide]
< 1	O=C(Nc1ccc(Cc2c[nH]c3ncccc23)cn1)c1cccc(OC(F)(F)F)c1 [P-0113, N-[5-(1H-Pyrrolo[2,3-b]pyridin-3-ylmethyl)-pyridin-2-yl]-3-trifluoromethoxy-benzamide]
< 1	COc1cccc(CNc2nc(Cl)c(Cc3c[nH]c4ncc(Cl)cc34)s2)n1 [P-0199, [4-Chloro-5-(5-chloro-1H-pyrrolo[2,3-b]pyridin-3-ylmethyl)-thiazol-2-yl]-(6-methoxy-pyridin-2-ylmethyl)-amine]
< 1	O=C(Nc1ccc(Cc2c[nH]c3ncccc23)cn1)c1ccc(Cl)c(Cl)c1 [P-0100, 3,4-Dichloro-N-[5-(1H-pyrrolo[2,3-b]pyridin-3-ylmethyl)-pyridin-2-yl]-benzamide]
< 1	Clc1ccccc1CNc1ncc(Cc2c[nH]c3ncccc23)cn1 [P-0301, (2-Chloro-benzyl)-[5-(1H-pyrrolo[2,3-b]pyridin-3-ylmethyl)-pyrimidin-2-yl]-amine]
< 1	Fc1c(CNc2ncc(Cc3c[nH]c4ncccc34)cn2)cccc1C(F)(F)F [P-0309, (2-Fluoro-3-trifluoromethyl-benzyl)-[5-(1H-pyrrolo[2,3-b]pyridin-3-ylmethyl)-pyrimidin-2-yl]-amine]

IC50 [µM]	Compound
< 1	Fc1ccc(F)c(CNc2ccc(Cc3c[nH]c4ncc(Cl)cc34)cn2)c1 [P-0298, [5-(5-Chloro-1H-pyrrolo[2,3-b]pyridin-3-ylmethyl)-pyridin-2-yl]-(2,5-difluoro-benzyl)-amine]
< 1	Fc1cc(CNc2ncc(Cc3c[nH]c4ncccc34)cn2)cc(C(F)(F)F)c1 [P-0294, (3-Fluoro-5-trifluoromethyl-benzyl)-[5-(1H-pyrrolo[2,3-b]pyridin-3-ylmethyl)-pyrimidin-2-yl]-amine]
< 1	COc1ncccc1CNc1ccc(Cc2c[nH]c3ncc(Cl)cc23)cn1 [P-0286, [5-(5-Chloro-1H-pyrrolo[2,3-b]pyridin-3-ylmethyl)-pyridin-2-yl]-(2-methoxy-pyridin-3-ylmethyl)-amine]
< 1	COc1ncccc1CNc1ccc(Cc2c[nH]c3ncccc23)cn1 [P-0215, (2-Methoxy-pyridin-3-ylmethyl)-[5-(1H-pyrrolo[2,3-b]pyridin-3-ylmethyl)-pyridin-2-yl]-amine]
< 1	Fc1nc(NCc2ccc(Cl)cc2)ccc1Cc1c[nH]c2ncc(Cl)cc12 [P-0132, (4-Chloro-benzyl)-[5-(5-chloro-1H-pyrrolo[2,3-b]pyridin-3-ylmethyl)-6-fluoro-pyridin-2-yl]-amine]
< 1	O=C(c1ccc(NCc2ccccc2)nc1)c1c[nH]c2ncccc12 [P-0002, (6-Benzylamino-pyridin-3-yl)-(1H-pyrrolo[2,3-b]pyridin-3-yl)-methanone]
< 1	COc1cnc2[nH]cc(Cc3ccc(NCc4ccc(OC)nc4)nc3)c2c1 [P-0332, (6-Methoxy-pyridin-3-ylmethyl)-[5-(5-methoxy-1H-pyrrolo[2,3-b]pyridin-3-ylmethyl)-pyridin-2-yl]-amine]
< 1	Clc1ccc(CNc2ccc(Cc3c[nH]c4ncccc34)nn2)cc1 [P-0092, (4-Chloro-benzyl)-[6-(1H-pyrrolo[2,3-b]pyridin-3-ylmethyl)-pyridazin-3-yl]-amine]
< 1	COc1ccnc2[nH]cc(Cc3ccc(NCc4ccc(Cl)cc4)nc3)c12 [P-0010, [5-(4-Methoxy-1H-pyrrolo[2,3-b]pyridin-3-ylmethyl)-pyridin-2-yl]-(4-chloro-benzyl)-amine]
< 1	FC(F)(F)c1ccc(CNc2ncc(Cc3c[nH]c4ncccc34)cn2)cc1 [P-0308, [5-(1H-Pyrrolo[2,3-b]pyridin-3-ylmethyl)-pyrimidin-2-yl]-(4-trifluoromethyl-benzyl)-amine]
< 1	COc1ccc(CNc2ccc(Cc3c[nH]c4ncccc34)cn2)cc1 [P-0004, (4-methoxy-benzyl)-[5-(1H-pyrrolo[2,3-b]pyridin-3-ylmethyl)-pyridin-2-yl]-amine]
< 1	Cc1nc(NCc2ccc(Cl)cc2)ccc1Cc1c[nH]c2ncccc12 [P-0014, (4-Chloro-benzyl)-[6-methyl-5-(1H-pyrrolo[2,3-b]pyridin-3-ylmethyl)-pyridin-2-yl]-amine]
< 1	COc1ccc(CNc2nc(Cl)c(Cc3c[nH]c4ncc(Cl)cc34)s2)cn1 [P-0190, [4-Chloro-5-(5-chloro-1H-pyrrolo[2,3-b]pyridin-3-ylmethyl)-thiazol-2-yl]-(6-methoxy-pyridin-3-ylmethyl)-amine]
< 1	COc1ccc(CNc2ccc(Cc3c[nH]c4ncccc34)cn2)c(OC)n1 [P-0370, (2,6-Dimethoxy-pyridin-3-ylmethyl)-[5-(1H-pyrrolo[2,3-b]pyridin-3-ylmethyl)-pyridin-2-yl]-amine]
< 1	Fc1ccccc1CNc1nc(Cl)c(Cc2c[nH]c3ncc(Cl)cc23)s1 [P-0246, [4-Chloro-5-(5-chloro-1H-pyrrolo[2,3-b]pyridin-3-ylmethyl)-thiazol-2-yl]-(2-fluoro-benzyl)-amine]
< 1	FC(F)Oc1ccccc1CNc1ncc(Cc2c[nH]c3ncccc23)cn1 [P-0312, (2-Difluoromethoxy-benzyl)-[5-(1H-pyrrolo[2,3-b]pyridin-3-ylmethyl)-pyrimidin-2-yl]-amine]
< 1	CCOc1ccccc1CNc1ccc(Cc2c[nH]c3ncc(C#N)cc23)cn1 [P-0323, 3-[6-(2-Ethoxy-benzylamino)-pyridin-3-ylmethyl]-1H-pyrrolo[2,3-b]pyridine-5-carbonitrile]
< 1	COc1ccc(F)c(CNc2ccc(Cc3c[nH]c4ncccc34)cn2)c1 [P-0371, (2-Fluoro-5-methoxy-benzyl)-[5-(1H-pyrrolo[2,3-b]pyridin-3-ylmethyl)-pyridin-2-yl]-amine]
< 1	Fc1cccc(CNc2ccc(Cc3c[nH]c4ncccc34)cn2)c1 [P-0343, (3-Fluoro-benzyl)-[5-(1H-pyrrolo[2,3-b]pyridin-3-ylmethyl)-pyridin-2-yl]-amine]
< 1	Fc1cc(CNc2ccc(Cc3c[nH]c4ncccc34)cn2)cc(C(F)(F)F)c1 [P-0346, (3-Fluoro-5-trifluoromethyl-benzyl)-[5-(1H-pyrrolo[2,3-b]pyridin-3-ylmethyl)-pyridin-2-yl]-amine]
